Results: the CheMixHub viscosity set
± gives the uncertainty stated by the source.

Assay: xn = mol fraction of the nth substance listed

CC(C)(C)C1CCCCC1 + CCCCCCCCCCCCCCCC
viscosity [mPa·s], 102 kPa
Settings	x1 = 0.1004	x1 = 0.2003	x1 = 0.3003	x1 = 0.4016	x1 = 0.5003	x1 = 0.6001	x1 = 0.7002	x1 = 0.8001	x1 = 0.8999
293.15 K	3.31 ± 0.03	3.13 ± 0.03	2.95 ± 0.02	2.77 ± 0.02	2.59 ± 0.02	2.41 ± 0.02	2.23 ± 0.02	2.05 ± 0.02	1.87 ± 0.02
303.15 K	2.63 ± 0.02	2.51 ± 0.02	2.37 ± 0.02	2.24 ± 0.02	2.1 ± 0.02	1.97 ± 0.02	1.83 ± 0.02	1.7 ± 0.02	1.56 ± 0.02
313.15 K	2.15 ± 0.02	2.05 ± 0.02	1.95 ± 0.02	1.85 ± 0.02	1.75 ± 0.02	1.64 ± 0.02	1.54 ± 0.02	1.43 ± 0.02	1.32 ± 0.02
323.15 K	1.78 ± 0.02	1.71 ± 0.02	1.63 ± 0.02	1.56 ± 0.02	1.48 ± 0.02	1.39 ± 0.02	1.31 ± 0.02	1.22 ± 0.02	1.14 ± 0.02

C1CCCC1 + CCCCCCCO
101.3 kPa
Settings	viscosity [mPa·s]
298.15 K, x1 = 0.0352	5.482 ± 0.032
298.15 K, x1 = 0.0593	5.221 ± 0.031
298.15 K, x1 = 0.0988	4.844 ± 0.029
298.15 K, x1 = 0.1481	4.446 ± 0.027
298.15 K, x1 = 0.2145	3.924 ± 0.024
298.15 K, x1 = 0.2684	3.481 ± 0.022
298.15 K, x1 = 0.3065	3.175 ± 0.021
298.15 K, x1 = 0.3655	2.729 ± 0.019
298.15 K, x1 = 0.4052	2.452 ± 0.018
298.15 K, x1 = 0.4333	2.255 ± 0.017
298.15 K, x1 = 0.4668	2.039 ± 0.016
298.15 K, x1 = 0.4932	1.889 ± 0.015
298.15 K, x1 = 0.5131	1.773 ± 0.015
298.15 K, x1 = 0.5247	1.71 ± 0.014
298.15 K, x1 = 0.5389	1.629 ± 0.014
298.15 K, x1 = 0.5545	1.546 ± 0.014
298.15 K, x1 = 0.5728	1.45 ± 0.013
298.15 K, x1 = 0.5972	1.348 ± 0.013
298.15 K, x1 = 0.612	1.272 ± 0.013
298.15 K, x1 = 0.6459	1.141 ± 0.012
298.15 K, x1 = 0.6823	1.009 ± 0.012
298.15 K, x1 = 0.7149	0.909 ± 0.012
298.15 K, x1 = 0.7429	0.819 ± 0.011
298.15 K, x1 = 0.7801	0.734 ± 0.011
298.15 K, x1 = 0.8099	0.672 ± 0.011
298.15 K, x1 = 0.8367	0.622 ± 0.011
298.15 K, x1 = 0.876	0.559 ± 0.011
298.15 K, x1 = 0.9139	0.507 ± 0.011
298.15 K, x1 = 0.9562	0.455 ± 0.011
298.15 K, x2 = 0.0123	0.422 ± 0.01
308.15 K, x1 = 0.0706	3.806 ± 0.024
308.15 K, x1 = 0.107	3.567 ± 0.023
308.15 K, x1 = 0.2112	2.906 ± 0.019
308.15 K, x1 = 0.2927	2.434 ± 0.017
308.15 K, x1 = 0.3502	2.124 ± 0.016
308.15 K, x1 = 0.3903	1.904 ± 0.015
308.15 K, x1 = 0.4235	1.762 ± 0.015
308.15 K, x1 = 0.4744	1.536 ± 0.014
308.15 K, x1 = 0.5101	1.397 ± 0.019
308.15 K, x1 = 0.5124	1.388 ± 0.019
308.15 K, x1 = 0.5273	1.333 ± 0.013
308.15 K, x1 = 0.5473	1.254 ± 0.013
308.15 K, x1 = 0.5733	1.164 ± 0.012
308.15 K, x1 = 0.5957	1.094 ± 0.012
308.15 K, x1 = 0.6126	1.033 ± 0.012
308.15 K, x1 = 0.6337	0.973 ± 0.012
308.15 K, x1 = 0.6691	0.873 ± 0.011
308.15 K, x1 = 0.6936	0.817 ± 0.011
308.15 K, x1 = 0.7266	0.741 ± 0.011
308.15 K, x1 = 0.7759	0.645 ± 0.011
308.15 K, x1 = 0.8235	0.567 ± 0.011
308.15 K, x1 = 0.8612	0.513 ± 0.011
308.15 K, x1 = 0.9001	0.465 ± 0.011
308.15 K, x1 = 0.9538	0.407 ± 0.01
318.15 K, x1 = 0.0663	3.159 ± 0.021
318.15 K, x1 = 0.1607	2.659 ± 0.018
318.15 K, x1 = 0.2747	2.102 ± 0.016
318.15 K, x1 = 0.3487	1.774 ± 0.015
318.15 K, x1 = 0.4227	1.477 ± 0.013
318.15 K, x1 = 0.4685	1.326 ± 0.013
318.15 K, x1 = 0.504	1.204 ± 0.012
318.15 K, x1 = 0.5407	1.097 ± 0.012
318.15 K, x1 = 0.5754	1.006 ± 0.012
318.15 K, x1 = 0.6027	0.936 ± 0.012
318.15 K, x1 = 0.6281	0.877 ± 0.011
318.15 K, x1 = 0.6529	0.814 ± 0.011
318.15 K, x1 = 0.6898	0.743 ± 0.011
318.15 K, x1 = 0.7214	0.681 ± 0.011
318.15 K, x1 = 0.7581	0.617 ± 0.011
318.15 K, x1 = 0.8025	0.549 ± 0.011
318.15 K, x1 = 0.8554	0.475 ± 0.011
318.15 K, x1 = 0.9198	0.402 ± 0.01
318.15 K, x1 = 0.9672	0.359 ± 0.01
